{
  "source": "patent US20050244413A1",
  "about": "“Compositions and methods for treating cancer using cytotoxic CD44 antibody immunoconjugates and chemotherapeutic agents” (priority 2002, published 2005)",
  "key": {"mouse CD44v6": {"system": "mouse CD44v6", "assay": "Cross-reactivity with mouse CD44v6", "type": "binding"}, "[1]": {"system": "antigen-positive FaDu cells", "assay": "In vitro binding to FaDu cells (FACS)", "details": "1 hour on ice, FITC-labeled anti-human IgG, read-out: apparent KD", "procedure": "The binding of BIWA 4 antibody and BIWI 1 conjugate to antigen-positive FaDu cells was determined. Cells ([…]) were incubated in 96-well plates with varying concentrations of antibody or conjugate on ice for 1 hour. The test article was washed from the plate and FITC-labeled anti-human IgG was added and the incubation on ice was continued in the dark for 1 hour. After washing, the cells were fixed with 1% paraformaldehyde and analyzed on a fluorescence activated cell sorter (FACS)."}, "[2]": {"system": "antigen-positive cell line FaDu", "assay": "In vitro cytotoxicity, MTS/PMS cell proliferation assay, FaDu", "type": "cell-based, human", "details": "FaDu cells, 4 days exposure", "procedure": "(§1) For determination of viable cells the Cell Titer 96® AQueous non-radioactive cell proliferation assay (Promega) was used. Five thousand cells per well were seeded into 96-well plates in 90 μl medium without phenole red. Cells were allowed to settle down for 1 to 3 h and then serial dilutions of the immunoconjugate in 10 μl PBS were added. Cells without immunoconjugate served as negative control. Cells were incubated for 4 days at 37° C. in a humified 5% CO2 atmosphere and then 20 μl MTS/PMS were added according to the manufacturer's recommendation. After additional 1 to 4 h incubation at 37° C. the absorbance at 490 nm was recorded using an ELISA plate reader. For each cell line triplicates were analyzed. The percentage of the surviving cell fraction and the IC50 value were calculated using the GraphPad Prism® (Version 3.0) software.\n(§2) The in vitro cytotoxicity of BIWI 1 was evaluated using the antigen-positive cell lines A431 and FaDu, and the antigen-negative cell line […]. Cells were exposed to different concentrations of BIWI 1 for 4 days, then stained with MTS/PMS and assayed on an ELISA plate reader. The surviving fractions of cells were then calculated using the GraphPad Prism® software package."}, "[3]": {"system": "antigen-negative cell line A549", "assay": "In vitro cytotoxicity, MTS/PMS cell proliferation assay, A549", "type": "cell-based", "details": "A549 cells, highest concentration of BIWI 1 tested (5×1 0-7 M), 4 days", "procedure": "as §1, §2"}, "FaDu tumors": {"system": "FaDu tumors", "assay": "BIWI 1 combination therapy with paclitaxel in the FaDu xenograft model", "type": "in vivo, mouse", "procedure": "In vivo anti-tumor efficacy of BIWI 1 was tested in three nude mouse xenograft models applying antigen-positive human tumors: A431 (ATCC # CRL 1555; epidermoid carcinoma of the vulva), FaDu (ATCC # HTB 43; squamous cell carcinoma of the pharynx), and MDA-MB 453 (ATCC # HTB-131; breast carcinoma). The cells were received from ATCC and cultured in RPMI1640 medium containing 10% fetal calf serum and supplements. 1×10^6 tumors cells were transplanted subcutaneously into the right flank of 6 week old female NMRI-nu/nu mice. Tumor growth was monitored by measuring tumor size. A tumor response was rated as complete response when the tumor completely disappeared at any time after start of treatment. The response was rated as partial response when the tumor volume decreased after treatment but thereafter started regrowing. The tolerability of the treatment was monitored by measuring mouse weight during the observation period.\nMice were randomised into the following treatment groups (treatment/initial mean tumor volume/tumor volume range/number of mice): • Group 1: Control (PBS)/197 mm^3/65-402 mm^3/8 mice • Group 2: Paclitaxel/182 mm^3 /65%-302 mm^3/8 mice • Group 3: BIWI 1/208 mm^3 /65-382 mm^3/8 mice • Group 4: BIWI 1+paclitaxel/159 mm^3 /79-335 mm^3 /7 mice\nTreatment consisted either of five i.v. injections of BIWI 1 (7 mg/kg corresponding to 100 μg/kg DM1) at day 1, 3, 5, 8, 10, or of six i.p. injections of paclitaxel (10 mg/kg) at day 2, 4, 6, 9, 11, 13, respectively, or a combination thereof. Control animals were treated with PBS.\nOne tumor completely dissappeared during treatment and the animal remained tumor free until the end of the observation period."}, "MDA-MB-453 tumors [4]": {"system": "MDA-MB-453 tumors", "assay": "BIWI 1 combination with capecitabine in nude mice xenografted with MDA-MB-453 tumors", "type": "in vivo, mouse", "details": "BIWI 1 75 μg/kg DM1 i.v. q7dx3", "procedure": "The xenograft model MDA-MB-453 was handled as in Section 2.8.\nBIWI 1 solution (protein concentration 2.95 mg/ml, 53.6 μg DM1/ml, 3.7 molecules DM1/molecule antibody) was diluted in PBS to a DM1 concentration of 75 μg/kg body weight. […] The antibody solution was injected into the tail vein with an injection volume of 200 μl for a 25 g mouse. In the control groups without BIWI 1 treatment animals were injected i.v. with PBS. BIWI 1 was given i.v. into the tail vein at a dose of 75 μg DM1/kg once weekly, for three weeks. Capecitabine (150 mg tablets, Roche) was given intragastrically (by gavage needle, as a suspension in water) at a dose of 375 or 500 mg/kg during three weeks on 5 consecutive days per week.\nTo assess the efficacy of BIMI 1 in combination with capecitabine, non-curative doses of both drugs were tested as single agents or in combination in nude mice xenografted with MDA-MB453 tumors.\nFor the combinations experiments BIWI 1 with 75 μg/kg DM1 was combined with 375 or 500 mg/kg capecitabine."}, "MDA-MB-453 tumors [5]": {"system": "MDA-MB-453 tumors", "assay": "BIWI 1 combination with doxorubicin in nude mice xenografted with MDA-MB-453 tumors", "type": "in vivo, mouse", "protocol": "Similar experiments as outlined under Section 2.6 were undertaken in a human breast carcinoma xenograft model. Experiments were performed using nude mice xenografted subcutaneously with the human breast carcinoma cell line MDA-MBA53. […] The efficacy of these combinations was compared to those of the respective monotherapies by i) analysing the tumor volumes over time and ii) by determining the time for tumors to reach a certain size (tumor growth delay).\nThe dilutions were prepared freshly for each application or stored at +4° C. during the whole treatment period. […] Doxorubicin (Doxorubicin “Ebewe”®, 2 mg/ml) was diluted in PBS. 200 μl of solutions with different concentrations were injected into the tail vein. Docetaxel (Taxotere®, Aventis, 10 mg/ml) was diluted in 0.9% NaCl. 200 μl of solutions with different concentrations were injected into the tail vein.\nThe xenograft model was handled slightly different as outlined under Section 2.1. Briefly, 1×10^7 MDA-MB-453 cells (ATCC No. HTB-131) were injected into the mammary fat pad of female NMRI nu/nu mice. After reaching a volume of approximately 1000 mm^3 tumors were excised, cut into 4×4 mm pieces and passaged further subcutaneously. Tumor fragments were cryoconserved in 90% RPMI 1640/10% dimethylsulfoxide (slow freezing process down to −80° C., storage in liquid nitrogen). For further passaging, frozen tumor fragments were thawed, washed 3 times in PBS and implanted subcutaneously into the right and left flanks of a 4-5 female NMRI nu/nu mice. Tumors of these mice were then used to prepare the animals for a therapy experiment. Tumors were excised with a size of approximately 10 mm in diameter, cut into 2×2 mm pieces and implanted subcutaneously into the right flank of 6-8 week old female NMRI nu/nu mice. Approximately twice as many animals as needed for the experiment were prepared. When tumors reached a size of 5-10 mm in diameter (10-14 days after implantation), animals were randomised and treatments were started. Animals were obtained from Harlan (Germany) or M&B (Denmark). Tumor sizes and body weights were recorded as described in Section 2.7."}, "[6]": {"details": "BIWI 1 7 mg/kg i.v. x5, paclitaxel 10 mg/kg i.p. x6, or both"}},
  "note": "Where “and” joins values, the source holds several entries; their conditions need not be identical. Equal entries are not always repeated.",
  "data": [
    {"substance": "BIWI 1", "values": [
      {"measurement": "cross-reaction with mouse CD44v6", "setting": "mouse CD44v6", "result": "does not cross-react"},
      {"measurement": "Kd", "setting": "[1]", "result": 1.8, "unit": "nM"},
      {"measurement": "IC50", "setting": "[2]", "result": "~24", "unit": "nM"},
      {"measurement": "surviving fraction", "setting": "[3]", "result": 50, "unit": "%"},
      {"measurement": "Initial Tumor Doubling Time", "setting": "FaDu tumors; BIWI 1 7 mg/kg i.v. day 1,3,5,8,10, paclitaxel 10 mg/kg i.p. day 2,4,6,9,11,13, or both", "result": 7, "unit": "days"},
      {"measurement": "Complete Regression", "setting": "FaDu tumors; [6]", "result": "0/8"},
      {"measurement": "Growth Delay Factor", "setting": "FaDu tumors; [6]", "result": 0.75},
      {"measurement": "partial response", "setting": "FaDu tumors; BIWI 1 monotherapy 7 mg/kg i.v. x5", "result": "3/8"},
      {"measurement": "GDF4", "setting": "MDA-MB-453 tumors [4]", "result": 2.6},
      {"measurement": "T4T", "setting": "MDA-MB-453 tumors [4]", "result": 26.9, "unit": "days"},
      {"measurement": "T/C (d25)", "setting": "MDA-MB-453 tumors [4]", "result": 31, "unit": "%"},
      {"measurement": "GDF4", "setting": "MDA-MB-453 tumors [5]; BIWI 1 50 μg/kg DM1 i.v. q7dx4", "result": 1.0},
      {"measurement": "T/C (d13)", "setting": "MDA-MB-453 tumors [5]; BIWI 1 50 μg/kg DM1 i.v. q7dx4", "result": 68, "unit": "%"},
      {"measurement": "GDF4", "setting": "MDA-MB-453 tumors [5]; BIWI 1 75 μg/kg DM1 i.v. q7dx4", "result": 1.6},
      {"measurement": "T4T", "setting": "MDA-MB-453 tumors [5]; BIWI 1 75 μg/kg DM1 i.v. q7dx4", "result": "13 days and 13.0 days"},
      {"measurement": "T/C (d13)", "setting": "MDA-MB-453 tumors [5]; BIWI 1 75 μg/kg DM1 i.v. q7dx4", "result": 59, "unit": "%"},
      {"measurement": "tumor bearing animals cured", "setting": "MDA-MB-453 tumors [5]; BIWI 1 100 μg/kg DM1, q7dx4", "result": "4/6"}
    ]}
  ]
}
